US20180153830A1, “SELECTIVE INHIBITORS OF UNDIFFERENTIATED CELLS” (Yissum Research Development Company of the Hebrew …, priority 2012, published 2018)
“And” between values parts separate entries of the source, which are not always exact repeats. Equal entries are not always repeated.

How the values were obtained:
[1] = test system: phosphorylated eIF2α in differentiated cells; assay: Phospho-eIF2α immunoblot, differentiated cells; type: cell-based, human; details: 20 μM PluriSIn #1 or 100 nm A939572
Experimental: For immunoblotting, 10% polyacrylamide gel was used for protein separation and detection. The gel was transferred to a nitrocellulose membrane and antibody hybridization and chemiluminescence were performed according to standard procedures. The primary antibodies in this analysis were rabbit anti-phosphorylated-eIF2a (1:250, Cell Signaling Technology), rabbit anti caspase-3 (1:1,000, Cell Signaling Technology), mouse anti β-catenin (1:10,000, BD Biosciences) and mouse anti-α-tubulin (1:50,000, Sigma-Aldrich). Horseradish peroxidase-conjugated anti-rabbit and anti-mouse secondary antibodies were obtained from Jackson Immunoresearch Laboratories.
To further study the significance of UPR, XBP1 mRNA splicing and eIF2α phosphorylation, hallmarks of UPR, were further examined. Human ES cells and ES-derived differentiated cells were treated with PluriSIn #1 for 12 hours, and expression of the spliced isoform sXBP1 was determined by quantitative PCR and by immunoblotting, as described in the Materials and Methods section. Gene expression change conferred by dithiothreitol ([…]) was used as a positive control.

[2] = test system: mouse embryos (inner cell mass); assay: In-vitro embryonic development experiments; type: cell-based; details: for proportion of high quality blastocysts: compound alone; for embryos developing into good quality (category A/B) blastocysts: compound alone (20 μM PluriSIn #1 or 100 nm A939572); for embryos developing into good quality blastocysts with oleic acid / proportion of high quality blastocysts with oleic acid: compound with 100 μM oleic acid
Experimental: Superovulation was induced in female mice (CB6F1/OLAHSD and ICR:HSD(CD-1)), by injection of gonadotropins: intraperitoneal injection of 5 IU PMSG (pregnant mare's serum gonadotropin) at 1:00 P.M. was followed by an intraperitoneal injection of 5 IU hCG (human chorionic gonadotropin) 47 hours later, in accordance with the procedures described by Najy et al. [Manipulating the mouse embryo: a laboratory manual, 3rd Edn., Cold Spring Harbor Laboratory Press (2003)].
Females were mated with stud males immediately after the second injection, and plugging was evident the next morning. Pregnant female mice were sacrificed at approximately 36 hours p.c. (post coitum), and two-cell embryos were collected in accordance with the procedures described by Najy et al. [Manipulating the mouse embryo: a laboratory manual, 3rd Edn., Cold Spring Harbor Laboratory Press (2003)]. The abdominal cavity was opened, and the oviduct was cut and transferred to a Petri dish containing M2 medium at room temperature. The oviduct was flushed with M2 medium, and embryos were picked up using a pipette and washed in M2 medium to rinse off debris. Embryos were then transferred to microdrops of M16 medium. A 35 mm culture dish (Falcon BD) containing drops of 40 μl M16 medium, covered with mineral oil, was prepared the day before, and incubated overnight at a temperature of 37° C. under 5% CO2. Embryos were then transferred to these microdrops following their collection, and incubated at a temperature of 37° C. under 5% CO2. The development of the embryos was examined twice a day using light microscopy imaging. At the morula stage (approximately 3.5 days p.c.), embryos were transferred either to microdrops of 40 μl M16 medium with 20 μM PluriSIn #1 (isonicotinic acid N′-phenylhydrazide) in 0.2% DMSO, or to control microdrops with 0.2% DMSO. Other control embryos were left at the original microdrops to control for possible effects of the transfer itself. At approximately 4 days p.c. and 4.5 days p.c., the embryos were examined using light microscopy imaging, and blastocysts were graded as described by Cortes et al. [Stem Cells and Development 17:255-267 (2008)].
As described in the Materials and Methods section, a series of independent experiments were performed with two strains of mice, in which two-cell embryos were collected from the oviducts of pregnant mice at approximately 1.5 days post coitum, and these embryos were then let to develop in vitro. The embryos reached the morula stage at approximately 3.5 days post coitum, and were then transferred either to drops with 20 μM PluriSIn #1 (17 embryos in total), drops with 20 μM PluriSIn #1 and 100 μM oleic acid (7 embryos in total), or to control drops with 0.2% DMSO (8 embryos in total), while other control embryos were left to develop without transfer at all (10 embryos in total). Using light microscopy imaging, the development of the embryos was followed until they became mature blastocysts (at approximately 4.5 days post coitum, after which all embryos disintegrated in culture). The blastocysts were then classified into three distinct categories: (A) good quality mouse blastocysts with large and distinct ICM; (B) mouse blastocysts with distinct, but smaller, ICM; and (C) bad quality mouse blastocysts with indistinguishable ICM, as described by Cortes et al. [Stem Cells and Development 17:255-267 (2008)].
The above experiments with mouse embryos were then repeated using the SCD1 inhibitor A939572 instead of PluriSIn #1, and compared with the results obtained with PluriSIn #1, in order to confirm that the effects of PluriSIn #1 are associated with inhibition of SCD1 activity.

human ES cells = assay: Global gene expression analysis (microarray); type: cell-based; details: 12 hours
Experimental: Human embryonic stem cells, and early endodermal progenitors derived from human embryonic stem cells, were treated for 12 hours with the compounds PluriSIn #1 (isonicotinic acid N′-phenylhydrazide) or PluriSIn #6 (2-hydroxy-2-(thiophen-2-yl)-2-phenylacetic acid 4-methyl-N′-phenylhydrazide), or with 0.2% DMSO control. Total RNA was extracted using a PerfectPure™ RNA Cultured Cell Kit (5 Prime) according to the manufacturer's protocol, and analyzed using a Human Genome U133A 2.0 microarray platform (Affymetrix); washing and scanning were performed according to the manufacturer's protocol. Original microarray data are accessible at the NCBI Gene Expression Omnibus (GEO) database under the accession number GSE37040.
Arrays were normalized using the MASS algorithm in the Affymetrix Expression Console. Probe sets absent in both control and treatment conditions were filtered out by the MASS Absent/Present call. Probe sets with expression values lower than 50 were raised to this level. Using a 2-fold threshold, a list of differentially expressed genes was comprised for each pair of conditions: embryonic stem cells treated with PluriSin #1 vs. control, ESCs treated with PluriSIn #6 vs. control, and endodermal progenitor cells treated with PluriSIn #1 vs. control. […]

| SMILES | levels of phosphorylated eIF2α, differentiated cells [1] | proportion of high quality blastocysts [2] [%] | embryos developing into good quality (category A/B) blastocysts [2] | embryos developing into good quality blastocysts with oleic acid [2] | proportion of high quality blastocysts with oleic acid [2] [%] | embryos developing into blastocysts with no distinguished ICM (category C) ([2]; 20 μM) | embryos stuck at the morula stage ([2]; 20 μM) | gene expression changes associated with ER stress and UPR (human ES cells) |
| --- | --- | --- | --- | --- | --- | --- | --- | --- |
| CNC(=O)c1cccc(NC(=O)N2CCC(Oc3ccccc3Cl)CC2)c1 [A939572, 4-(2-chlorophenoxy)-N-(3-(methylcarbamoyl)-phenyl)piperidine-1-carboxamide, reference compound] | did not increase levels | 56 | 5 of 9 | 5 of 7 | 71 | – | – | – |
| O=C(NNc1ccccc1)c1ccncc1 [PluriSIn #1, isonicotinic acid N′-phenylhydrazide] | did not increase levels | 41 | 7 of 17 and 7/17 | 5 of 7 | 71 | 6 of 17 and 6/17 | 4 of 17 and 4/17 | considerable gene expression changes |
| Cc1ccc(NNC(=O)C(O)(c2ccccc2)c2cccs2)cc1 (centres unmarked) [PluriSIn #6, 2-hydroxy-2-(thiophen-2-yl)-2-phenylacetic acid 4-methyl-N′-phenylhydrazide] | – | – | – | – | – | – | – | considerable gene expression changes |
